Holding throughout (type): biochemical
Assay [1] deals with Streptomyces avermitilis (4-hydroxyphenyl)pyruvate dioxygenase (Sav HppD) variant Az1 V189A F216A P243A N245Q Q255A L367I, SEQ ID NO: 2 (Streptomyces avermitilis, UniProt Q53586, F216A/L367I/N245Q/P243A/Q255A/V189A). The experiment in a line: Kinetic analysis of 1NF azidation by purified Sav HppD Az1 (anaerobic, GCMS product quantification). Conditions: Az1 vs wt. The method, then:
(§1) FIG. 10 is a series of plots which summarize kinetics for non-heme iron enzyme mediated azidation reactions. The leftmost plot provides kinetics data for wild-type Sav HppD. The middle plot provides kinetics data for Az1 Sav HppD. The rightmost plot provides kinetics data for Az2 Sav HppD.
(§2) Protein expression was conducted following the protocols detailed in section (B). E. coli cells expressing non-heme iron enzyme variants were pelleted (4,000×g, 5 min, 4° C.) and stored at −20° C. for at least 24 hours. The cell pallet was then resuspended in 50 mM KPi buffer containing 100 mM NaCl and 20 mM imidazole (pH 7.5 at 25° C.) (10 mL buffer per gram of cell pellet). […] Fractions containing purified proteins were detected by SDS-PAGE, pooled and concentrated using Millipore® centrifugal filter. […] Final concentration was measured by absorbance at 280 nm using a NanoDrop spectrophotometer. The theoretical extinction coefficients (M^−1 cm^−1) used for Say HppD and its variants were calculated using ExPASy Bioinformatics Resources Portal. […]
(§3) Kinetic analyses for wild-type Sav HppD, Az1, and Az2 mediated 1NF azidation were performed in an anaerobic chamber. […] After centrifugation at 12,000 rpm for 10 mins, an aliquot (200 μL) of the organic layer was taken for GCMS analysis for product quantification.

For assay [2], the target named is Streptomyces avermitilis (4-hydroxyphenyl)pyruvate dioxygenase (Sav HppD) variant Az2 V189A N191A S230L P243G N245F Q255P L367I, SEQ ID NO: 3 (Streptomyces avermitilis, UniProt Q53586, L367I/N191A/N245F/P243G/Q255P/S230L/V189A). The experiment in a line: Kinetic analysis of 1NF azidation by purified Sav HppD Az2 (anaerobic, GCMS product quantification). Conditions: comparator not given. The method, then: as §1, §2, §3
Streptomyces avermitilis (4-hydroxyphenyl)pyruvate dioxygenase (Sav HppD) variant Az2 V189A N191A S230L P243G N245F Q255P L367I, SEQ ID NO: 3, sequence (Q53586 whole entry V189A/N191A/S230L/P243G/N245F/Q255P/L367I): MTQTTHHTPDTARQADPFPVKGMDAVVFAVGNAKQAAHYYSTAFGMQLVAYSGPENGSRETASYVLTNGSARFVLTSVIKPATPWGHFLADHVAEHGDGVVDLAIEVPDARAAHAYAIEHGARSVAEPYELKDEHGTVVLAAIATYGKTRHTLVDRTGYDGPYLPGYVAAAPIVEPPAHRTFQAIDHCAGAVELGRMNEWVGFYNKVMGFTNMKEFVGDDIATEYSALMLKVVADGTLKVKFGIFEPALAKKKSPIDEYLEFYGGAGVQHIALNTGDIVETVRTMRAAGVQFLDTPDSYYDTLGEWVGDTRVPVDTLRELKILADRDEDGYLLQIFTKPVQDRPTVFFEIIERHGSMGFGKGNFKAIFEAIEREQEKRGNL

The nature of assay [3]: Replacement of azide with other halide or pseudohalide anions, Sav HppD Az1 cell lysate. How it is done: We also tried to extend the scope of N-radical precursors and replace azide with other halide or pseudohalide anions, the results of which analyses are summarized in TABLE 5. For these analyses. ferrous ammonium sulfate (10 μL, 100 mM in water), sodium halide or pseudohalide solution (10 μL, 1 M in water), and N-fluoroamide substrate 1NF (10 μL, 400 mM in DME) were added to a 2 mL vial containing Sav HppD Az1 cell lysate (400 μL, obtained from OD600=20 cell suspension) in an anerobic chamber. The vial was capped and shaken at 680 rpm at room temperature for 24 hours. At the end of the reaction, the vial was opened and the reaction was quenched with 0.8 mL of a hexanes/ethylacetate solution (4:6 v/v) of internal standard 1,2,3-trimethoxybenzene (0.5 mM final concentration). The reaction mixture was transferred to a 2 mL microcentrifuge tube, vortexed (10 seconds, 3 times), then centrifuged (14,000×g, 5 min) to completely separate the organic and aqueous layers. […]

[4] abbreviates: Sav HppD Az1 cell lysate (OD600=20), 1NF, GCMS peak area over internal standard, 24 hours.

Molecules are shown by their SMILES. Like-named read-outs stand apart in the source and are kept apart here.

Streptomyces avermitilis (4-hydroxyphenyl)pyruvate dioxygenase (Sav HppD) variant Az1 V189A F216A P243A N245Q Q255A L367I, SEQ ID NO: 2, sequence (Q53586 whole entry V189A/F216A/P243A/N245Q/Q255A/L367I): as the sequence (Q53586 whole entry V189A/N191A/S230L/P243G/N245F/Q255P/L367I) above, with A191N, F216A, L230S, G243A, F245Q, P255A counted along it

In the case of `CCc1ccccc1C(=O)N(F)C(C)(C)C` [1NF, N-(tert-butyl)-2-ethyl-N-fluorobenzamide], in assay [1], the “increase in KM over the wild-type enzyme” value was determined as 1.7 fold and the “increase in kcat over the wild-type enzyme” value turned out to be 4.1 fold. Also, in assay [2], the “decrease in KM” value is listed as 6.6 fold and the decrease in kcat was determined as 9 fold.

In assay [3] (setting [4]), `[Br-].[Na+]` [NaBr] registered an IA/internal of 2.4 and an IF/internal of 0.04.

For the compound `[Cl-].[Na+]` [NaCl], in assay [3], the IA/internal worked out at 2.3 and the IF/internal turned out to be 0.04.

In assay [3] (setting [4]), `[F-].[Na+]` [NaF] gave an IA/internal of 2.5 and an IF/internal of 0.04.

Take `O=N[O-].[Na+]` [NaNO2]: in assay [3], the IA/internal is listed as 1.9 and the IF/internal was found to be 0.03.

`N#C[O-].[Na+]` [NaOCN]: in assay [3] (setting [4]), the IA/internal is 2.1 and the IF/internal worked out at 0.03.

For the compound `N#C[S-].[Na+]` [NaSCN], in assay [3] (setting [4]), the IA/internal is listed as 2.7 and the IF/internal is reported as 0.05.

Source of the values: patent US20250263677A1, “BIOCATALYTIC USE OF NONHEME IRON PROTEINS FOR MOLECULAR FUNCTIONALIZATION” (The Johns Hopkins University, priority 2022, published 2025).
